Assay results taken from ChEMBL document CHEMBL1909046, “DrugMatrix in vitro pharmacology data”.

Legend:
[1] = target: Epidermal growth factor receptor (Homo sapiens, UniProt P00533); experiment: DRUGMATRIX: Protein Tyrosine Kinase, EGF Receptor enzyme inhibition (substrate: Poly(Glu:Tyr)); format: cell-based, Insect cells; conditions: Not Active = under 50% inhibition at 10 µM
[2] = target: Cytochrome P450 3A4 (Homo sapiens, UniProt P08684); conditions: bti-tn-5b1-4; also: in other assays of this panel Not Active means under 50% inhibition at 10 µM
[3] = DRUGMATRIX: Glutamate, Kainate radioligand binding (ligand: [3H] Kainic acid); format: cell membranes, Rattus norvegicus, Wistar, Brain, Membrane; conditions: Not Active = under 50% inhibition at 10 µM
[4] = target: T1, Nitric oxide synthase, inducible (Mus musculus, UniProt P29477); design: species or system Escherichia coli;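 also: inhibition of iNOS enzyme activity measured with L-arginine as substrate; in other assays of this panel Not Active means under 50% inhibition at 10 µM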
T1 sequence (P29477 whole entry): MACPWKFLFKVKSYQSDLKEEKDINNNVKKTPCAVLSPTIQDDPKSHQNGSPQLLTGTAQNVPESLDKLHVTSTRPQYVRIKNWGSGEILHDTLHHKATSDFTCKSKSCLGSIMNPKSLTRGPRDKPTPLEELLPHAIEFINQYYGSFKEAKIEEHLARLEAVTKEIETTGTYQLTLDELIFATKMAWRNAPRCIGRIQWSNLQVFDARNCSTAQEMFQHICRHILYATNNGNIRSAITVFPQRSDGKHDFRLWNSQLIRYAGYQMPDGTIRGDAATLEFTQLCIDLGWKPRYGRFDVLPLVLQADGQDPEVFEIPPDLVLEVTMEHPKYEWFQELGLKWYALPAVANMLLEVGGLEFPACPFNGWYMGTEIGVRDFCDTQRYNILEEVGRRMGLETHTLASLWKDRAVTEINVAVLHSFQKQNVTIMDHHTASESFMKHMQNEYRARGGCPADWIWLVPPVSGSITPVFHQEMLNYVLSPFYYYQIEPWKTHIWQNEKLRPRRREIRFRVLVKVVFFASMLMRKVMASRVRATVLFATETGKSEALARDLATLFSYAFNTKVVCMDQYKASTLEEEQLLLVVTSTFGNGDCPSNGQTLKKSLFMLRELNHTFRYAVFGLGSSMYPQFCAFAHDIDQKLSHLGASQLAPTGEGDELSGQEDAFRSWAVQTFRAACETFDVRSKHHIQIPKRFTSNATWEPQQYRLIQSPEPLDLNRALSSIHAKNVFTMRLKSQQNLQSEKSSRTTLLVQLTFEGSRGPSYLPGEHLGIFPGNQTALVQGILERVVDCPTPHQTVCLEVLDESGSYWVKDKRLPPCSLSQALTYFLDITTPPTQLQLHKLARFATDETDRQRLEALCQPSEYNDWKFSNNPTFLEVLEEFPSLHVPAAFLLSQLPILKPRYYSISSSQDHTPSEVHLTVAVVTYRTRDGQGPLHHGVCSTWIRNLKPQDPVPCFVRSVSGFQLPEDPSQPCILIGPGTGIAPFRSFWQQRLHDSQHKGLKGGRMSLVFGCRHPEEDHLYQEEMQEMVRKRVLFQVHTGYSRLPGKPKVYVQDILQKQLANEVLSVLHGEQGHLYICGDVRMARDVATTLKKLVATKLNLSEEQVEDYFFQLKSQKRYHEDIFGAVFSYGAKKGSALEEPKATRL

[5] = target: Melanocortin receptor 4 (Homo sapiens, UniProt P32245); format: cell membranes, HEK293, Membrane; conditions: hek293; also: in other assays of this panel Not Active means under 50% inhibition at 10 µM
[6] = target: T2, 3-hydroxy-3-methylglutaryl-coenzyme A reductase (Homo sapiens, UniProt P04035); design: species or system Escherichia coli;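 also: enzyme inhibition assay of HMG-CoA reductase using radiolabeled [14C]HMG-CoA as substrate; in other assays of this panel Not Active means under 50% inhibition at 10 µM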
T2 sequence (P04035 whole entry): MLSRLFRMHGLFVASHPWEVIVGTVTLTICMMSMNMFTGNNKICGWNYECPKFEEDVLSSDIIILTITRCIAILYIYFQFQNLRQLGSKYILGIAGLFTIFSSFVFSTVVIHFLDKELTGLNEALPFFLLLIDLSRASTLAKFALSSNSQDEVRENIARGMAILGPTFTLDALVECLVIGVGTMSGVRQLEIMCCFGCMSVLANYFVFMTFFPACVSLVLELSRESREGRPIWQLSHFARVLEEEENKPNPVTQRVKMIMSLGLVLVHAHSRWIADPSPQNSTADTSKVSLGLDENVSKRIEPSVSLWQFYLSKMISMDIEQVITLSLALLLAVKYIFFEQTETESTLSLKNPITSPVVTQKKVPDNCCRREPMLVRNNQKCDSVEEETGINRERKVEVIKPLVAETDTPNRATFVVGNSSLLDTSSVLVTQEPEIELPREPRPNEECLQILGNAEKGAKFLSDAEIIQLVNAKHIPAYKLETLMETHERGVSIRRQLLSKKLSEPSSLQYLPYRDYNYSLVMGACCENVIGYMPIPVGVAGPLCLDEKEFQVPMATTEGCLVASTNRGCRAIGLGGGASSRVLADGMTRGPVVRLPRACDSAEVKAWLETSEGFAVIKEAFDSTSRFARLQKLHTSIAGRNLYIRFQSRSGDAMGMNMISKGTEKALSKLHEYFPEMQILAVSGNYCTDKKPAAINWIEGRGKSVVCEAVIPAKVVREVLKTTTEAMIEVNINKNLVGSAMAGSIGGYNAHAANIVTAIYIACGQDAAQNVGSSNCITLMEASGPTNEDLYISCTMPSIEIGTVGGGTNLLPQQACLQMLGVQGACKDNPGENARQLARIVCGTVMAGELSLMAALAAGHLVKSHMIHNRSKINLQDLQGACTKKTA

[7] = target: T3, Calcitonin receptor (Homo sapiens, UniProt P30988); format: cell membranes, Membrane; conditions: t47d; also: in other assays of this panel Not Active means under 50% inhibition at 10 µM
T3 sequence (P30988 whole entry): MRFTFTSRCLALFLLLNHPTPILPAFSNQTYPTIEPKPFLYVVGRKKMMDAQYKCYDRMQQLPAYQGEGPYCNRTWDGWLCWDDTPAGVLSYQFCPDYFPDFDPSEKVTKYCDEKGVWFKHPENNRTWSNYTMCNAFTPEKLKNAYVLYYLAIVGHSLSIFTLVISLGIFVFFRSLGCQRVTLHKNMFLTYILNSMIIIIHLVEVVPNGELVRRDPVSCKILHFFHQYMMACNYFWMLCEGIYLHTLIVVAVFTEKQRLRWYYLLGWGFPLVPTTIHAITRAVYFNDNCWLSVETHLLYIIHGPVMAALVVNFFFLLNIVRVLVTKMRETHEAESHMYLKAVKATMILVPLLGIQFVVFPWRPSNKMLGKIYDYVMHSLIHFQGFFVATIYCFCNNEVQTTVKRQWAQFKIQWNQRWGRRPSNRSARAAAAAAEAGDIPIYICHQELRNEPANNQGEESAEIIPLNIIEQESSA

[8] = target: Cytochrome P450 2C9 (Homo sapiens, UniProt P11712); conditions: bti-tn-5b1-4; also: in other assays of this panel Not Active means under 50% inhibition at 10 µM
Sequence of Cytochrome P450 2C9 (P11712 whole entry): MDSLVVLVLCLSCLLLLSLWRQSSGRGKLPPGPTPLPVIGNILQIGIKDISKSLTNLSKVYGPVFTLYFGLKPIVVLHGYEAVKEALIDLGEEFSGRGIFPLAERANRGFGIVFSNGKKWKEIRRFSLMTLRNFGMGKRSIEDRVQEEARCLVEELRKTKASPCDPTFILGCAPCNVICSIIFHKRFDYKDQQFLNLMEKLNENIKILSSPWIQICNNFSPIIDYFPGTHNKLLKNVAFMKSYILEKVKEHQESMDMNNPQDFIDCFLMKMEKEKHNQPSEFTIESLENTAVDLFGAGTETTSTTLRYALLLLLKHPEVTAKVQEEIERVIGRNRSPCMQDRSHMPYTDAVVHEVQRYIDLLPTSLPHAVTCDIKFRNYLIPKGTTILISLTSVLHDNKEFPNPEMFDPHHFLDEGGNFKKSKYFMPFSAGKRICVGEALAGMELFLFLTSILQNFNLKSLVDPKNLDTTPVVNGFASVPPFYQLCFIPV

Sequence of Epidermal growth factor receptor (P00533 whole entry): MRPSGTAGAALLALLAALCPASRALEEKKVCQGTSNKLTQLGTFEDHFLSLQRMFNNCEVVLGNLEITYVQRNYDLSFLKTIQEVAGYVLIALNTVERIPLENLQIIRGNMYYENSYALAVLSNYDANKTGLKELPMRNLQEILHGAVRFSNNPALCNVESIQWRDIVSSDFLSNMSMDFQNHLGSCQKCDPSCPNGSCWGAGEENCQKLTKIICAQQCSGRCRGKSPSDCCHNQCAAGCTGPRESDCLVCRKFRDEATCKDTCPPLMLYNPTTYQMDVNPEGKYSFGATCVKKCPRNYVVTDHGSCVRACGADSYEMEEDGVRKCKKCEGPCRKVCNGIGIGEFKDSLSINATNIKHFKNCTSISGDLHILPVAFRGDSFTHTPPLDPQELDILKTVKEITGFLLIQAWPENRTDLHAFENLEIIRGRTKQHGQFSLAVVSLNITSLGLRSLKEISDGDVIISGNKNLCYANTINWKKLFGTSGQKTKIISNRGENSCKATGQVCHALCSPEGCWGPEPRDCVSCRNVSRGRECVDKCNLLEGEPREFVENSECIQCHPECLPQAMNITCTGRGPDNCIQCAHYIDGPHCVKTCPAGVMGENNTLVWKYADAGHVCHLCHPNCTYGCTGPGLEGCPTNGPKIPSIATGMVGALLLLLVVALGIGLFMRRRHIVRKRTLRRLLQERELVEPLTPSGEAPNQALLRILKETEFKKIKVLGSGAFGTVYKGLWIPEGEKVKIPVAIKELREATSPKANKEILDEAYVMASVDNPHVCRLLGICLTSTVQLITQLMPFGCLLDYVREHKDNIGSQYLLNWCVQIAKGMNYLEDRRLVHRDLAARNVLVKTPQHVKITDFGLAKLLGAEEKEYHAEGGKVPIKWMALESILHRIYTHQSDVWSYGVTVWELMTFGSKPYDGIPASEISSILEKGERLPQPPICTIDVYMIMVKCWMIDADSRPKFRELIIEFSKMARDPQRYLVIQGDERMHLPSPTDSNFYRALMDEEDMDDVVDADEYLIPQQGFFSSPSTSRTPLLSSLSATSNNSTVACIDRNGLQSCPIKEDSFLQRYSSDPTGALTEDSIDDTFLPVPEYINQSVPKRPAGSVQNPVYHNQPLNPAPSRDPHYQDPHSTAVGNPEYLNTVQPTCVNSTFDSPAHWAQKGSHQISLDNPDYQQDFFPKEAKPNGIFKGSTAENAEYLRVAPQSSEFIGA
Sequence of Cytochrome P450 3A4 (P08684 whole entry): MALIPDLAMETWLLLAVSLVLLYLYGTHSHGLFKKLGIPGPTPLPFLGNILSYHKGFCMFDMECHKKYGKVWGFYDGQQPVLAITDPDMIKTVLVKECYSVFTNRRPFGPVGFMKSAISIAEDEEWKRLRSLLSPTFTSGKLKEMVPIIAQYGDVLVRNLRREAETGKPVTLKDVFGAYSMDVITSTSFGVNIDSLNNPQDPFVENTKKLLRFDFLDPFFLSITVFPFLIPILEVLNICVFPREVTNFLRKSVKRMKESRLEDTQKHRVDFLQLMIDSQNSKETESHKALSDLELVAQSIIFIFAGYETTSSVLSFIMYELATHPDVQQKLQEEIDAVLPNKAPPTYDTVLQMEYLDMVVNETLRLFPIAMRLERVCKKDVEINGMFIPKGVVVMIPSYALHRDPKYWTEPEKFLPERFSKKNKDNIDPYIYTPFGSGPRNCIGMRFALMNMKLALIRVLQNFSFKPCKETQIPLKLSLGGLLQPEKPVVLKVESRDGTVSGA
Sequence of Melanocortin receptor 4 (P32245 whole entry): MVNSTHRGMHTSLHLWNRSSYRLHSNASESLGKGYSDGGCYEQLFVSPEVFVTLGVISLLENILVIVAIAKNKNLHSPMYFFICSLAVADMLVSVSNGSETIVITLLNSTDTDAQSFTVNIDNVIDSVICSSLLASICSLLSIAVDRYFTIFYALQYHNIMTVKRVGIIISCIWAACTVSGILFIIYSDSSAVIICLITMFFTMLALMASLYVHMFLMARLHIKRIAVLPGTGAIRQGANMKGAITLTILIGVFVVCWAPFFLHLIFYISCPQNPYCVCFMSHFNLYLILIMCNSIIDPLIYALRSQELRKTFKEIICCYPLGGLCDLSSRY

## C[C@H]1O[C@@H](n2cc(F)c(=O)[nH]c2=O)[C@H](O)[C@@H]1O [DOXIFLURIDINE]
[1]; insect cells
  IC50: Not Active
[2]
  IC50: Not Active
  Ki: Not Active
[3]
  IC50: Not Active
  Ki: Not Active
[4]
  IC50: Not Active
[5]
  IC50: Not Active
[6]
  IC50: Not Active
[7]
  IC50: Not Active
[8]
  IC50: Not Active
  Ki: Not Active

## Cn1c(=O)c2c(ncn2CC(O)CO)n(C)c1=O (stereo unspecified) [DYPHYLLINE]
[1]; insect cells
  IC50: Not Active
[2]
  IC50: Not Active
  Ki: Not Active
[3]
  IC50: Not Active
  Ki: Not Active
[4]
  IC50: Not Active
[5]
  IC50: Not Active
[6]
  IC50: Not Active
[7]
  IC50: Not Active
[8]
  IC50: Not Active
  Ki: Not Active

## CC[C@H]1CN2CCc3cc(OC)c(OC)cc3[C@@H]2C[C@@H]1C[C@H]1NCCc2cc(OC)c(OC)cc21 [EMETINE]
[1]; insect cells
  IC50: Not Active
[2]
  IC50: Not Active
  Ki: Not Active
[3]
  IC50: Not Active
  Ki: Not Active
[4]
  IC50: Not Active
[5]
  IC50: Not Active
[6]
  IC50: Not Active
[7]
  IC50: Not Active
[8]
  IC50: Not Active
  Ki: Not Active

## C[C@@H](CO)NC(=O)[C@@H]1C=C2c3cccc4[nH]cc(c34)C[C@H]2N(C)C1 [ERGONOVINE]
[1]; insect cells
  IC50: Not Active
[2]
  IC50: Not Active
  Ki: Not Active
[3]
  IC50: Not Active
  Ki: Not Active
[4]
  IC50: Not Active
[5]
  IC50: Not Active
[6]
  IC50: Not Active
[7]
  IC50: Not Active
[8]
  IC50: Not Active
  Ki: Not Active

## COC(=O)CCc1ccc(OCC(O)CNC(C)C)cc1 (stereo unspecified) [ESMOLOL]
[1]; insect cells
  IC50: Not Active
[2]
  IC50: Not Active
  Ki: Not Active
[3]
  IC50: Not Active
  Ki: Not Active
[4]
  IC50: Not Active
[5]
  IC50: Not Active
[6]
  IC50: Not Active
[7]
  IC50: Not Active
[8]
  IC50: Not Active
  Ki: Not Active

## CCC1(C)CC(=O)NC1=O (stereo unspecified) [ETHOSUXIMIDE]
[1]; insect cells
  IC50: Not Active
[2]
  IC50: Not Active
  Ki: Not Active
[3]
  IC50: Not Active
  Ki: Not Active
[4]
  IC50: Not Active
[5]
  IC50: Not Active
[6]
  IC50: Not Active
[7]
  IC50: Not Active
[8]
  IC50: Not Active
  Ki: Not Active

## C#C[C@]1(OC(C)=O)CC[C@H]2[C@@H]3CCC4=C[C@@H](OC(C)=O)CC[C@@H]4[C@H]3CC[C@@]21C [ETHYNODIOL DIACETATE]
[1]; insect cells
  IC50: Not Active
[2]
  IC50: Not Active
  Ki: Not Active
[3]
  IC50: Not Active
  Ki: Not Active
[4]
  IC50: Not Active
[5]
  IC50: Not Active
[6]
  IC50: Not Active
[7]
  IC50: Not Active
[8]
  IC50: Not Active
  Ki: Not Active

## C=CCc1ccc(O)c(OC)c1 [EUGENOL]
[1]; insect cells
  IC50: Not Active
[2]
  IC50: Not Active
  Ki: Not Active
[3]
  IC50: Not Active
  Ki: Not Active
[4]
  IC50: Not Active
[5]
  IC50: Not Active
[6]
  IC50: Not Active
[7]
  IC50: Not Active
[8]
  IC50: Not Active
  Ki: Not Active

## CC(C(=O)O)c1cccc(Oc2ccccc2)c1 (stereo unspecified) [FENOPROFEN]
[1]; insect cells
  IC50: Not Active
[2]
  IC50: Not Active
  Ki: Not Active
[3]
  IC50: Not Active
  Ki: Not Active
[4]
  IC50: Not Active
[5]
  IC50: Not Active
[6]
  IC50: Not Active
[7]
  IC50: Not Active
[8]
  IC50: Not Active
  Ki: Not Active

## Nc1ccn([C@@H]2O[C@H](CO)[C@@H](O)C2(F)F)c(=O)n1 [GEMCITABINE]
[1]; insect cells
  IC50: Not Active
[2]
  IC50: Not Active
  Ki: Not Active
[3]
  IC50: Not Active
  Ki: Not Active
[4]
  IC50: Not Active
[5]
  IC50: Not Active
[6]
  IC50: Not Active
[7]
  IC50: Not Active
[8]
  IC50: Not Active
  Ki: Not Active

## N=C(N)NC(=O)Cc1c(Cl)cccc1Cl [GUANFACINE]
[1]; insect cells
  IC50: Not Active
[2]
  IC50: Not Active
  Ki: Not Active
[3]
  IC50: Not Active
  Ki: Not Active
[4]
  IC50: Not Active
[5]
  IC50: Not Active
[6]
  IC50: Not Active
[7]
  IC50: Not Active
[8]
  IC50: Not Active
  Ki: Not Active

## Oc1c(Cl)cc(Cl)c(Cl)c1Cc1c(O)c(Cl)cc(Cl)c1Cl [HEXACHLOROPHENE]
[1]; read-out: IC50
  IC50: 749 nM
[2]
  IC50: Not Active
  Ki: Not Active
[3]
  IC50: Not Active
  Ki: Not Active
[4]
  IC50: Not Active
[5]
  IC50: Not Active
[6]
  IC50: Not Active
[7]
  IC50: Not Active
[8]
  IC50: Not Active
  Ki: Not Active

## NNc1nncc2ccccc12 [HYDRALAZINE]
[1]; insect cells
  IC50: Not Active
[2]
  IC50: Not Active
  Ki: Not Active
[3]
  IC50: Not Active
  Ki: Not Active
[4]
  IC50: Not Active
[5]
  IC50: Not Active
[6]
  IC50: Not Active
[7]
  IC50: Not Active
[8]
  IC50: Not Active
  Ki: Not Active

## CC(C)NNC(=O)c1ccncc1 [IPRONIAZID]
[1]; insect cells
  IC50: Not Active
[2]
  IC50: Not Active
  Ki: Not Active
[3]
  IC50: Not Active
  Ki: Not Active
[4]
  IC50: Not Active
[5]
  IC50: Not Active
[6]
  IC50: Not Active
[7]
  IC50: Not Active
[8]
  IC50: Not Active
  Ki: Not Active

## Cc1c(OCC(F)(F)F)ccnc1C[S+]([O-])c1nc2ccccc2[nH]1 (stereo unspecified) [LANSOPRAZOLE]
[1]; insect cells
  IC50: Not Active
[2]
  IC50: Not Active
  Ki: Not Active
[3]
  IC50: Not Active
  Ki: Not Active
[4]
  IC50: Not Active
[5]
  IC50: Not Active
[6]
  IC50: Not Active
[7]
  IC50: Not Active
[8]
  IC50: Not Active
  Ki: Not Active

## COc1ccc2[nH]cc(CCNC(C)=O)c2c1 [MELATONIN]
[1]; insect cells
  IC50: Not Active
[2]
  IC50: Not Active
  Ki: Not Active
[3]
  IC50: Not Active
  Ki: Not Active
[4]
  IC50: Not Active
[5]
  IC50: Not Active
[6]
  IC50: Not Active
[7]
  IC50: Not Active
[8]
  IC50: Not Active
  Ki: Not Active
